The text below walks through data of ChEMBL document CHEMBL1158570, “Secondary metabolites from the roots of Litsea hypophaea and their antitubercular activity” (2010).

Converted amounts (≈) assume the structure as drawn.

This experiment concerns Mycobacterium tuberculosis. The experiment can be described thus: Antimycobacterial activity against Mycobacterium tuberculosis H37Rv after 2 weeks. The conditions noted are these: 336 h. The format is functional.

In turn, `COc1cc(C2c3c(cc(OC)c(O)c3OC)C=C(C(=O)NCCc3ccc(O)cc3)C2C(=O)NCCc2ccc(O)cc2)cc(OC)c1O` (configuration not stated) yielded an MIC above 100 µg/mL.
The result for `COc1cc(/C=C/C(=O)NCCc2ccc(O)c(OC)c2)ccc1O` reads 1.6 µg/mL (≈ 4.66 µM).
With `CC[C@@H](CO)NCCN[C@@H](CC)CO` [ETHAMBUTOL], the MIC turned out to be 6.25 µg/mL (≈ 30.6 µM).
Turning to `COc1cc(OC)c(C[C@@H](O)Cc2ccc(OC)c(OC)c2)c(OC)c1` [HYPOPHAOL], the MIC amounted to 100 µg/mL (≈ 276 µM).
In turn, `CCCCCCCCCCCCC/C=C1/C(=O)O[C@](C)(OC)[C@@H]1O` [LITSEAKOLIDE L] displayed an MIC of 25 µg/mL (≈ 73.4 µM).
Regarding `COc1cc(/C=C/C(=O)NCCc2ccc(O)cc2)ccc1O` [N-TRANS-FERULOYL TYRAMINE], the MIC is 60 µg/mL (≈ 191 µM).
Turning to `COc1cc(/C=C/C(=O)NCCc2ccc(O)cc2)cc(OC)c1O` [TRANS-N-SINAPOYLTYRAMINE], the MIC was above 100 µg/mL.

By MIC is commonly meant the smallest concentration in the dilution series that meets the test's criterion for growth inhibition. A high value points to weaker potency.
